In assay [1] the target is Br2 β-glucosidase (glycoside hydrolase family 1), wild type (bovine rumen metagenome (microbe not identified)). Description: SEC. In general terms: In gel filtration, larger molecules generally elute earlier.
The subject of assay [2] is Br2 β-glucosidase. As to conditions: 0.1 M sodium phosphate, pH 6.5, 40 °C, 10 min.
In assay [3] the test system is Br2 β-glucosidase. Description: glucose release, glucose oxidase/ABTS assay, Michaelis-Menten fit. Format: biochemical, uncultured bacterium. As to conditions: 0.1 M sodium phosphate, pH 6.5, 40 °C, 10 min.
For assay [4], the system named is Br2 β-glucosidase. As to conditions: read-out: pNP-Glc; 0.1 M sodium phosphate, pH 6.5, 40 °C, 10 min.
Assay [5] deals with Br2 β-glucosidase. Description: p-nitrophenol release, absorbance at […] nm, Michaelis-Menten fit. Format: biochemical, uncultured bacterium. As to conditions: read-out: pNP-Glc; 0.1 M sodium phosphate, pH 6.5, 40 °C, 10 min.
The subject of assay [6] is Br2 β-glucosidase. As to conditions: read-out: pNP-Glc; 0.1 M sodium phosphate, pH 6.5, 40 °C, 10 min; cited from earlier work.

Where two headings read alike, the source gives them in different places.

The stoichiometry N is the number of molecules, sites or subunits per partner or assembly.

“Br2 β-glucosidase (glycoside hydrolase family 1), wild type (enzyme)” yielded a stoichiometry N in assay [1] of 4.
As to `OC[C@H]1O[C@@H](O[C@H]2[C@H](O)[C@@H](O)[C@H](O[C@H]3[C@H](O)[C@@H](O)[C@H](O[C@H]4[C@H](O)[C@@H](O)C(O)O[C@@H]4CO)O[C@@H]3CO)O[C@@H]2CO)[C@H](O)[C@@H](O)[C@@H]1O` (stereo partly shown) [Cellotetraose], the results for the Km in the assay on Br2 β-glucosidase [2] (read-out: Gentiobiose) and in the assay on Br2 β-glucosidase [3] (read-out: Gentiobiose) were 1.83 ± 0.09 mM and 3.87 ± 0.16 mM, respectively.
As to `OC[C@H]1O[C@@H](O[C@H]2[C@H](O)[C@@H](O)[C@H](O[C@H]3[C@H](O)[C@@H](O)C(O)O[C@@H]3CO)O[C@@H]2CO)[C@H](O)[C@@H](O)[C@@H]1O` (stereo partly shown) [Cellotriose], the figures for the Km with Br2 β-glucosidase [2] (read-out: Sophorose) and in the assay on Br2 β-glucosidase [3] (read-out: Sophorose) were 3.57 ± 0.33 mM and 6.73 ± 0.32 mM, respectively.
In the case of `OC[C@H]1O[C@@H](O[C@H]2C(O)O[C@H](CO)[C@@H](O)[C@@H]2O)[C@H](O)[C@@H](O)[C@@H]1O` (stereo partly shown) [Sophorose], the Km in the assay on Br2 β-glucosidase [3] (read-out: Sophorose) amounted to 2.68 ± 0.16 mM.
As to `OC[C@H]1O[C@@H](O[C@@H]2[C@@H](O)[C@H](O[C@H]3[C@H](O)[C@@H](CO)OC(O)[C@@H]3O)O[C@H](CO)[C@H]2O)[C@H](O)[C@@H](O)[C@@H]1O` (stereo partly shown) [Laminaritriose], the Km in the assay on Br2 β-glucosidase [3] (read-out: Sophorose) turned out to be 0.9 ± 0.09 mM.
For the compound `OC[C@H]1O[C@@H](O[C@H]2[C@H](O)[C@@H](CO)OC(O)[C@@H]2O)[C@H](O)[C@@H](O)[C@@H]1O` (stereo partly shown) [Laminaribiose], the Km in the assay on Br2 β-glucosidase [4] worked out at 11.7 ± 4.2 mM; in the assay on Br2 β-glucosidase [3] (read-out: pNP-Glc), 1.29 ± 0.08 mM.
Take `O=[N+]([O-])c1ccc(O[C@@H]2O[C@H](CO)[C@@H](O)[C@H](O)[C@H]2O)cc1` [pNP-Glc, p-nitrophenyl β-D-glucopyranoside]: the Km in the assay with Br2 β-glucosidase [5] amounted to 0.55 ± 0.04 mM.
Take `OC[C@H]1O[C@@H](O[C@H]2[C@H](O)[C@@H](O)C(O)O[C@@H]2CO)[C@H](O)[C@@H](O)[C@@H]1O` (stereo partly shown) [Cellobiose]: the Km in the assay with Br2 β-glucosidase [6] was 24.3 ± 9.8 mM.
As for `OC[C@H]1O[C@@H](OC[C@H]2OC(O)[C@H](O)[C@@H](O)[C@@H]2O)[C@H](O)[C@@H](O)[C@@H]1O` (stereo partly shown) [Gentiobiose], the Km in the assay on Br2 β-glucosidase [3] (read-out: Gentiobiose) came to 35.8 ± 10.9 mM.
As for `OC[C@H]1O[C@@H](O[C@@H]2[C@@H](O)[C@H](O[C@@H]3[C@@H](O)[C@H](O[C@H]4[C@H](O)[C@@H](CO)OC(O)[C@@H]4O)O[C@H](CO)[C@H]3O)O[C@H](CO)[C@H]2O)[C@H](O)[C@@H](O)[C@@H]1O` (stereo partly shown) [Laminaritetraose], the Km with Br2 β-glucosidase [3] (read-out: Gentiobiose) stood at 2.56 ± 0.41 mM.

The values above are taken from paper PMC10685196 (Heliyon, 2023).
